Where “and” joins values, the source holds several entries; their conditions need not be identical. Identical values can stand only once.
Tests used:
dopamine D1 receptor [1] = target: T1, dopamine D1 receptor (Homo sapiens, UniProt P21728); test: cAMP HTRF activation assay (absence of dopamine); format: cell-based; conditions: L-M(TK-), 10 μM compound, LMtk cells expressing D1, read-out: % of activation (compared to dopamine maximal response)
T1 construct: host or cells: LMtk (Ltk-) mouse fibroblast cells
T1 sequence (P21728 whole entry): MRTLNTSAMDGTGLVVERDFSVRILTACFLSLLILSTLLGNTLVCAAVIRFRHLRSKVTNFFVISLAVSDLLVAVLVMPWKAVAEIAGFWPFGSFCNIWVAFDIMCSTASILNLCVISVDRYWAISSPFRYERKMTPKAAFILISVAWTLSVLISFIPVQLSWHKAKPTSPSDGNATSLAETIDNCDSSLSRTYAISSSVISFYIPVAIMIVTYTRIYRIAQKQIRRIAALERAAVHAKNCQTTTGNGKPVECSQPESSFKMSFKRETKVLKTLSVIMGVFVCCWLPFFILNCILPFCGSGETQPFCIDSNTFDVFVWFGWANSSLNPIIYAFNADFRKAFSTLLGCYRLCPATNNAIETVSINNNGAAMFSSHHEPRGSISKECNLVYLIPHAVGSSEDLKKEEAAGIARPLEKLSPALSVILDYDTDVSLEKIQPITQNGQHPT
Description: (§1) Assays have been designed to measure the effects of compounds in accordance with the present invention in the absence of dopamine (“activation assay”) and in the presence of dopamine (“potentiation assay”).
The activation assay measures the stimulation of the production of cyclic adenosinemonophosphate (cAMP) in the Homogeneous Time Resolved Fluorescent (HTRF) assay, with the maximum increase in cAMP by increasing concentrations of the endogenous agonist, dopamine, defined as 100% activation.
(§2) Cells were cultured at 37° C. in a humidified atmosphere of 5% CO2. […]
The measurement of changes in intracellular cyclic adenosinemonophopshpate (cAMP) was determined using the HTRF cAMP dynamic assay kit from CisBio (Codolet, France). […] The tracer binding is determined by an anti-cAMP antibody labeled with cryptate. The effects of the compound alone (agonism) was determined by performing the assay in the absence of dopamine, whilst the effect of the compound as a positive allosteric modulator (PAM) was determined in the presence of an EC20 concentration of dopamine. […] This is then incubated for a further 60 min at room temperature and changes in HTRF fluorescent emission ratio determined according to manufacturer's instructions using an Envision plate reader (Perkin Elmer, Zaventem, Belgium) with laser excitation. […]

CYP3A4 = CYP3A4 induction assay in cryopreserved human hepatocytes; format: in vitro ADME
Method: The objective of the human hepatocyte assay is to characterize the induction potential of Compound of formula (I) by measuring the CYP3A4 activities after 3-days of hepatocytes treatment with culture medium alone or culture medium containing increasing concentration of NCE.
To this aim, cryopreserved human hepatocytes from a single donor are seeded on a 48 well collagen coated plate so that the final seeding density is 0.2×10^6 cells/well (final volume per well 0.25 mL). The cells are then incubated in seeding medium at 37° C., 95% humidity, 5% CO2 to allow the cells to attach. […]
For catalytic activity determination, solution of the CYP3A4 probe substrate, midazolam (final concentration 2.5 μM) is prepared in pre warmed assay medium. […] An aliquot of supernatant is diluted with deionised water and levels of 1-hydroxymidazolam is quantified using generic LC MS/MS methods.
The hepatocytes are solubilised in 0.1M sodium hydroxide at room temperature and protein content in each well determined using Pierce™ BCA Protein Assay Kit (Thermo Scientific) using bovine serum albumin as a standard.
The fold-induction (increase in CYP activity) is obtained by taking the ratio of the measured enzymatic activity obtained in hepatocytes treated with Compound of formula (I), over the one obtained in control hepatocytes treated with vehicle. […]

[2] = target: T2, human GABAA receptor α1,β2 and γ2 subunits (Homo sapiens, UniProt P14867+P18507+P47870); test: Automated patch clamp studies on GABAA receptor cells; format: cell-based; conditions: 10 μM compound; GABA 15 μM; CHO-K1 cells; read-out: percentage of inhibition of the GABAA receptor
T2 construct: expressed in transfected cells; host or cells: CHO-K1 cells
T2 sequence (P14867 28-456): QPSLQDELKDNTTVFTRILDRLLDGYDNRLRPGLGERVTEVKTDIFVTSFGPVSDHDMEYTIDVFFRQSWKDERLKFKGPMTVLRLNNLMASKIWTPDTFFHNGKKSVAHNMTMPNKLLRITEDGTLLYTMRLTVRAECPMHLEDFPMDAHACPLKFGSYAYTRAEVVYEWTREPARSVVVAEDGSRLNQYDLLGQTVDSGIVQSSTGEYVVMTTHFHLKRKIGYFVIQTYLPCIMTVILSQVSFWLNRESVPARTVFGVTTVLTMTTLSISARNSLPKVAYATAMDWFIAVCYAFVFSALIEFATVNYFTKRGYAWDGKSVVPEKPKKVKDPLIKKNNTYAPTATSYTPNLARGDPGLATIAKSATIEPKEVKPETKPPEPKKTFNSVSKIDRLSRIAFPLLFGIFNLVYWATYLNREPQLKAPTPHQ
T2 sequence (P47870 25-512 limits assumed): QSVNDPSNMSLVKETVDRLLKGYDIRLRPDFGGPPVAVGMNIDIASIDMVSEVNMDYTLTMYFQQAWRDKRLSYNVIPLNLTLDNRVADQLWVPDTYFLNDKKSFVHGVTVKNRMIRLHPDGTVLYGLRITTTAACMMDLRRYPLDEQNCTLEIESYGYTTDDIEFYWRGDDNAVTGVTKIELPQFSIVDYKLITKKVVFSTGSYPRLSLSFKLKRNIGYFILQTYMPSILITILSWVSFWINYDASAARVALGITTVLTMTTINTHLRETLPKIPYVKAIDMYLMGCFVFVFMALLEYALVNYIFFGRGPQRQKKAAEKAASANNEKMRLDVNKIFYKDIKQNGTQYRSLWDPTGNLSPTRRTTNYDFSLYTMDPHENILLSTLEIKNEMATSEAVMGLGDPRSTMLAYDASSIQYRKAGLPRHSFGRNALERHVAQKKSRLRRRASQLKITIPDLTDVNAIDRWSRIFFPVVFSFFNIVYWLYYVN
T2 sequence (P18507 40-475): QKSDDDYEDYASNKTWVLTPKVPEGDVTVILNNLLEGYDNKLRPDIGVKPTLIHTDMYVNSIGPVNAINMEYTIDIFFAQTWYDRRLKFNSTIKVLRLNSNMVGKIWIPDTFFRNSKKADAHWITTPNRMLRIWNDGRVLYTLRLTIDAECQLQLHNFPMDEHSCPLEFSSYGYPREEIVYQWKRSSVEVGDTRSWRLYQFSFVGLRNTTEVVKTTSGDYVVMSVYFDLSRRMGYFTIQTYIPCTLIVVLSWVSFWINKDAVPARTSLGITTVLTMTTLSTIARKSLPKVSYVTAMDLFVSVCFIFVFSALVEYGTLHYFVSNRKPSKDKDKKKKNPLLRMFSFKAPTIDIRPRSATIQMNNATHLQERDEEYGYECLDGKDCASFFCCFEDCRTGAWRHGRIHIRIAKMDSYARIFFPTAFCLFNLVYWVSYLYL
Method: CHO-K1 cells stably expressing human GABAA receptor α1,β2 and γ2 subunits were used. The cells were harvested using trypsin and maintained in serum-free medium at room temperature. The cells were washed and re-suspended in extracellular solution before testing.
Experiments on human GABAA (α1β2γ2) channels were conducted using an automated patch clamp assay (IonFlux™ HT). Compounds were tested at 3 concentrations (0.1, 1, and 10 μM) in 3 to 4 cells. The external solution for recording GABAA currents was composed of sodium chloride 137 mM, potassium chloride 4 mM, calcium chloride 1.8 mM, magnesium chloride 1 mM, HEPES 10 mM, and glucose 10 mM. Both external and internal solutions were titrated with NaOH or KOH to obtain a pH of 7.35 or 7.3, respectively. The internal pipette solution contained potassium fluoride 70 mM, potassium chloride 60 mM, sodium chloride 70 mM, HEPES 5 mM, EGTA 5 mM, and Magnesium ATP 4 mM. The final concentration of vehicle used to dilute compounds was 0.33% DMSO in each well. Bicuculline (0.032 to 100 μM) was used as positive control inhibitor. GABA (15 μM) was used as agonist. […]
The compound addition sequence was the following: one addition of the EC80 concentration of GABA was added to establish baseline response. […] Peak inward currents in response to the GABA additions in the presence of a single concentration of compound were measured. […]

dopamine D1 receptor [3] = target: T1, dopamine D1 receptor; test: cAMP HTRF potentiation assay (presence of EC20 dopamine); format: cell-based
Description: as §1
The potentiation assay measures the ability of compounds to increase the levels of cAMP produced by a low-threshold concentration of dopamine. The concentration of dopamine used ([EC20]) is designed to produce 20% stimulation compared to the maximal response (100%) seen with increasing the concentration of dopamine. To measure this potentiation increasing concentrations of the compound with the [EC20] of dopamine are incubated and the potentiation is measured as increases in cAMP production and concentration of compound which produces 50% of the potentiation of the cAMP levels is measured.
as §2
The measurement of changes in intracellular cyclic adenosinemonophopshpate (cAMP) was determined using the HTRF cAMP dynamic assay kit from CisBio (Codolet, France). […] The tracer binding is determined by an anti-cAMP antibody labeled with cryptate. The effects of the compound alone (agonism) was determined by performing the assay in the absence of dopamine, whilst the effect of the compound as a positive allosteric modulator (PAM) was determined in the presence of an EC20 concentration of dopamine. […]

Emax at 10 µM (dopamine D1 receptor [1]): < 20%
fold-induction value, times lower than positive control (Rifampicin) (CYP3A4; compound 1 μM vs Rifampicin 10 μM, 72 h, CYP3A4 activity (midazolam)): at least 7 times lower
induction potential, times lower than positive control (Rifampicin) (CYP3A4; highest fold-induction: compound at highest soluble concentration 3 μM vs Rifampicin 10 μM): about 4 times lower
inhibition at 10 µM [2]: < 0.1%
Erel (relative efficacy) (dopamine D1 receptor [3]; maximal potentiation relative to dopamine maximum response (100%)): about 68%
EC50 (dopamine D1 receptor [3]; potentiation of cAMP in presence of EC20 dopamine (1.1 nM), LMtk cells expressing D1): ~7.94 nM and < 316 nM
SMILES: C[C@H]1c2cccc(C(C)(C)O)c2C[C@H](CO)N1C(=O)Cc1c(Cl)ccc2c1c(Cl)nn2C [compound of formula (I), 2-(3,5-dichloro-1-methyl-indazol-4-yl)-1-[(1S,3R)-3-(hydroxymethyl)-5-(1-hydroxy-1-methyl-ethyl)-1-methyl-3,4-dihydro-1H-isoquinolin-2-yl]ethanone]

Source: patent US12643877B2, “Substituted tetrahydroisoquinoiline derivative as a D1 positive allosteric modulator” (UCB Biopharma SRL, priority 2019, dated 2026)
